Measured values taken from patent publication US7503967B2, “Azo compound, ink composition and colored article” (Nippon Kayaku Kabushiki Kaisha, priority 2004, dated 2009).

Test: solubility in water of the azo compound
Type: physicochemical
Settings: mixed salt of lithium and sodium

| Compound | solubility [mg/mL] |
| --- | --- |
| Nc1c(N=Nc2ccc3c(O)c(N=Nc4ccc(N=Nc5ccc(S(=O)(=O)O)cc5)cc4S(=O)(=O)O)c(S(=O)(=O)O)cc3c2S(=O)(=O)O)cc(S(=O)(=O)O)c2cc(S(=O)(=O)O)c(N=Nc3ccc([N+](=O)[O-])cc3S(=O)(=O)O)c(O)c12 [compound 1] | ≥ 100 |
| Nc1c(N=Nc2ccc3c(O)c(N=Nc4ccc(N=Nc5ccc(S(=O)(=O)O)cc5)cc4S(=O)(=O)O)c(S(=O)(=O)O)cc3c2S(=O)(=O)O)cc(S(=O)(=O)O)c2cc(S(=O)(=O)O)c(N=Nc3ccc(S(=O)(=O)O)cc3[N+](=O)[O-])c(O)c12 [compound 3] | ≥ 100 |
| Cc1cc(N=Nc2c(S(=O)(=O)O)cc3c(S(=O)(=O)O)c(N=Nc4cc(S(=O)(=O)O)c5cc(S(=O)(=O)O)c(N=Nc6ccc([N+](=O)[O-])cc6S(=O)(=O)O)c(O)c5c4N)ccc3c2O)c(OCCCS(=O)(=O)O)cc1N=Nc1ccc([N+](=O)[O-])cc1S(=O)(=O)O [compound 16] | ≥ 100 |
| Cc1cc(N=Nc2c(S(=O)(=O)O)cc3c(S(=O)(=O)O)c(N=Nc4cc(S(=O)(=O)O)c5cc(S(=O)(=O)O)c(N=Nc6ccc([N+](=O)[O-])cc6S(=O)(=O)O)c(O)c5c4N)ccc3c2O)c(OCCCS(=O)(=O)O)cc1N=Nc1ccc(S(=O)(=O)O)cc1C(=O)O [compound 21] | ≥ 100 |
